Each structure is given as a SMILES string. pIC50: −log10 of the molar value. Where only a bound is given, the exact number is not on record here.

The assay has as its system HIV-1 IIIB. Briefly: HOS HIV-1 infectivity assay. In kind it is cell-based. The conditions noted are these: Human immunodeficiency virus 1, IIIB; as determined by the infectivity assay; strain not stated in Table 2; read-out: Activity Level. How it is done:
Compounds were profiled against two HIV-1 viruses, the M-tropic (CCR5 utilizing) Ba-L strain and the T-tropic (CXCR4 utilizing) IIIB strain. Both viruses were propagated in human peripheral blood lymphocytes. Compounds were tested for there ability to block infection of the HOS cell line (expressing hCXCR4/hCCR5/hCD4/pHIV-LTR-luciferase) by either HIV-1 Ba-L or HIV-1 IIIB. Compound cytotoxicity was also examined in the absence of virus addition.
HOS cells (expressing hCXCR4/hCCR5/hCD4/pHIV-LTR-luciferase) were harvested and diluted in Dulbeccos modified Eagles media supplemented with 2% FCS and non-essential amino acid to a concentration of 60,000 cells/ml. The cells were plated into 96-well plates (100 ul per well) and the plates were placed in a tissue culture incubator (37° C.; 5% CO2/95% air) for a period of 24 h.
Subsequently, 50 ul of the desired drug solution (4 times the final concentration) was added to each well and the plates were returned to the tissue culture incubator (37° C.; 5% CO2/95% air) for 1 h. Following this incubation 50 ul of diluted virus was added to each well (approximately 2 million RLU per well of virus). The plates were returned to the tissue culture incubator (37° C.; 5% CO2/95% air) and were incubated for a further 96 h.
Following this incubation the endpoint for the virally infected cultures was quantified following addition of Steady-Glo Luciferase assay system reagent (Promega, Madison, Wis.). Cell viability or non-infected cultures was measured using a CellTiter-Glo luminescent cell viability assay system (Promega, Madison, Wis.). All luminescent readouts are performed on a Topcount luminescence detector (Packard, Meridien, Conn.).
For `CN(Cc1nc2ccccc2n1CCn1ccnc1)C1CCCc2cccnc21` (stereo not shown) [Example 70, N-({1-[2-(1H-Imidazol-1-yl)ethyl]-1H-benzimidazol-2-yl}methyl)-N-methyl-5,6,7,8-tetrahydro-8-quinolinamine], the pIC50 is 6.30 to 7.00.
For the compound `CN(Cc1nc2ccccc2n1CCc1cncn1C)C1CCCc2cccnc21` (stereo not shown) [Example 71, N-Methyl-N-({1-[2-(1-methyl-1H-imidazol-5-yl)ethyl]-1H-benzimidazol-2-yl}methyl)-5,6,7,8-tetrahydro-8-quinolinamine], the pIC50 is 6.30 to 7.00.
For `CN(Cc1nc2ccccc2n1CCc1cn(C)cn1)C1CCCc2cccnc21` (stereo not shown) [Example 72, N-Methyl-N-({1-[2-(1-methyl-1H-imidazol-4-yl)ethyl]-1H-benzimidazol-2-yl}methyl)-5,6,7,8-tetrahydro-8-quinolinamine], the pIC50 was 5.00 to 6.30.
In the case of `CN(C)Cc1ccc(-n2c(CN(C)C3CCCc4cccnc43)nc3ccccc32)cc1` (stereo not shown) [Example 73, N-[(1-{4-[(Dimethylamino)methyl]phenyl}-1H-benzimidazol-2-yl)methyl]-N-methyl-5,6,7,8-tetrahydro-8-quinolinamine], the pIC50 is 5.00 to 6.30.
The figure for `CN(C)Cc1ccccc1-n1c(CN(C)C2CCCc3cccnc32)nc2ccccc21` (stereo not shown) [Example 74, N-[(1-{2-[(Dimethylamino)methyl]phenyl}-1H-benzimidazol-2-yl)methyl]-N-methyl-5,6,7,8-tetrahydro-8-quinolinamine] is 5.00 to 6.30.
For the compound `CN(Cc1nc2ccccc2n1C[C@@H]1CCCNC1)[C@H]1CCCc2cccnc21` [Example 75e, (8S)—N-Methyl-N-({1-[(3R)-3-piperidinylmethyl]-1H-benzimidazol-2-yl}methyl)-5,6,7,8-tetrahydro-8-quinolinamine], the pIC50 was above 7.00.
For the compound `CN1CCC[C@@H](Cn2c(CN(C)[C@H]3CCCc4cccnc43)nc3ccccc32)C1` [Example 75f, (8S)—N-Methyl-N-[(1-{[(3R)-1-methyl-3-piperidinyl]methyl}-1H-benzimidazol-2-yl)methyl]-5,6,7,8-tetrahydro-8-quinolinamine], the pIC50 was above 7.00.
The figure for `CN1CCC[C@H](Cn2c(CN(C)[C@@H]3CCCc4cccnc43)nc3ccccc32)C1` [Example 76, (8R)—N-Methyl-N-[(1-{[(3S)-1-methyl-3-piperidinyl]methyl}-1H-benzimidazol-2-yl)methyl]-5,6,7,8-tetrahydro-8-quinolinamine] is 6.30 to 7.00; for `CN1CCC[C@@H](Cn2c(CN(C)[C@@H]3CCCc4cccnc43)nc3ccccc32)C1` [Example 77, (8R)—N-Methyl-N-[(1-{[(3R)-1-methyl-3-piperidinyl]methyl}-1H-benzimidazol-2-yl)methyl]-5,6,7,8-tetrahydro-8-quinolinamine] it is 6.30 to 7.00.
The figure for `CC(C)CCN1CCC[C@@H](Cn2c(CN(C)[C@@H]3CCCc4cccnc43)nc3ccccc32)C1` [Example 78, (8R)—N-Methyl-N-[(1-{[(3R)-1-(3-methylbutyl)-3-piperidinyl]methyl}-1H-benzimidazol-2-yl)methyl]-5,6,7,8-tetrahydro-8-quinolinamine] is 6.30 to 7.00; for `CC(C)N1CCC[C@@H](Cn2c(CN(C)[C@@H]3CCCc4cccnc43)nc3ccccc32)C1` [Example 79, (8R)—N-Methyl-N-[(1-{[(3R)-1-(1-methylethyl)-3-piperidinyl]methyl}-1H-benzimidazol-2-yl)methyl]-5,6,7,8-tetrahydro-8-quinolinamine] it is above 7.00.
The same measure for `CC(C)CCN1CCC[C@@H](Cn2c(CN(C)[C@H]3CCCc4cccnc43)nc3ccccc32)C1` [Example 80, (8S)—N-Methyl-N-[(1-{[(3R)-1-(3-methylbutyl)-3-piperidinyl]methyl}-1H-benzimidazol-2-yl)methyl]-5,6,7,8-tetrahydro-8-quinolinamine]: above 7.00; for `CC(C)N1CCC[C@@H](Cn2c(CN(C)[C@H]3CCCc4cccnc43)nc3ccccc32)C1` [Example 81, (8S)—N-Methyl-N-[(1-{[(3R)-1-(1-methylethyl)-3-piperidinyl]methyl}-1H-benzimidazol-2-yl)methyl]-5,6,7,8-tetrahydro-8-quinolinamine]: above 7.00.
Take `CC(C)CCN1CCC[C@H](Cn2c(CN(C)[C@@H]3CCCc4cccnc43)nc3ccccc32)C1` [Example 82, (8R)—N-Methyl-N-[(1-{[(3S)-1-(3-methylbutyl)-3-piperidinyl]methyl}-1H-benzimidazol-2-yl)methyl]-5,6,7,8-tetrahydro-8-quinolinamine]: the pIC50 was above 7.00.
The same measure for `CC(C)N1CCC[C@H](Cn2c(CN(C)[C@@H]3CCCc4cccnc43)nc3ccccc32)C1` [Example 83, (8R)—N-methyl-N-[(1-{[(3S)-1-(1-methylethyl)-3-piperidinyl]methyl}-1H-benzimidazol-2-yl)methyl]-5,6,7,8-tetrahydro-8-quinolinamine]: above 7.00; for `CC(C)CCN1CCC[C@H](Cn2c(CN(C)[C@H]3CCCc4cccnc43)nc3ccccc32)C1` [Example 84, (8S)—N-Methyl-N-[(1-{[(3S)-1-(3-methylbutyl)-3-piperidinyl]methyl}-1H-benzimidazol-2-yl)methyl]-5,6,7,8-tetrahydro-8-quinolinamine]: above 7.00.
The figure for `CC(C)N1CCC[C@H](Cn2c(CN(C)[C@H]3CCCc4cccnc43)nc3ccccc32)C1` [Example 85, (8S)—N-Methyl-N-[(1-{[(3S)-1-(1-methylethyl)-3-piperidinyl]methyl}-1H-benzimidazol-2-yl)methyl]-5,6,7,8-tetrahydro-8-quinolinamine] is above 7.00.
The figure for `CN(Cc1nc2ccccc2n1C[C@@H]1CCCN(C(=N)N)C1)[C@@H]1CCCc2cccnc21` [Example 86, (3S)-3-{[2-({Methyl[(8R)-5,6,7,8-tetrahydro-8-quinolinyl]amino}methyl)-1H-benzimidazol-1-yl]methyl}-1-piperidinecarboximidamide] is 6.30 to 7.00; for `CN(Cc1nc2ccccc2n1C[C@@H]1CCCN(C(=N)N)C1)[C@H]1CCCc2cccnc21` [Example 87, (3S)-3-{[2-({Methyl[(8S)-5,6,7,8-tetrahydro-8-quinolinyl]amino}methyl)-1H-benzimidazol-1-yl]methyl}-1-piperidinecarboximidamide] it is above 7.00.
As for `CN(Cc1nc2ccccc2n1C[C@H]1CCCN(C(=N)N)C1)[C@@H]1CCCc2cccnc21` [Example 88, (3R)-3-{[2-({Methyl[(8R)-5,6,7,8-tetrahydro-8-quinolinyl]amino}methyl)-1H-benzimidazol-1-yl]methyl}-1-piperidinecarboximidamide], the pIC50 is 6.30 to 7.00.
For `CN(Cc1nc2ccccc2n1C[C@H]1CCCN(C(=N)N)C1)[C@H]1CCCc2cccnc21` [Example 89, (3R)-3-{[2-({Methyl[(8S)-5,6,7,8-tetrahydro-8-quinolinyl]amino}methyl)-1H-benzimidazol-1-yl]methyl}-1-piperidinecarboximidamide], the pIC50 is above 7.00.
The figure for `CCCN/C(=N\C#N)N1CCC[C@H](Cn2c(CN(C)[C@H]3CCCc4cccnc43)nc3ccccc32)C1` [Example 90, (3R)—N-Cyano-3-{[2-({methyl[(8S)-5,6,7,8-tetrahydro-8-quinolinyl]amino}methyl)-1H-benzimidazol-1-yl]methyl}-N′-propyl-1-piperidinecarboximidamide] is 6.30 to 7.00.
